{
  "source": "patent US10660914B2",
  "about": "“Stuffy nose deblocking composition having antiviral activity” (MARINOMED BIOTECH AG, priority 2015, dated 2020)",
  "key": {"[1]": {"system": "human rhinovirus 1a (HRV1a)", "assay": "Inhibition of human rhinovirus 1a infection of Hela cells (cell viability, IC50)", "protocol": "(§1) Hela cells were seeded into 96 well plates with a cell density of 5*10^3 cells per well and cultivated for 24 hours in a standard DMEM tissue culture medium containing 4.5 g/I glucose. Virus suspensions containing carrageenan polymer at varying concentrations of between 0 and 150 μg/ml, in combination with NaCl and sorbitol (as indicated in the respective legends to each table) in a dilution series, were incubated for 30 minutes. Cells were infected with these virus suspensions containing the test substances and 7*10^3 (HRV1a) or 5*10^4 (HRV8) infectious units per well. 30 minutes after infection the virus inoculum was removed and substituted by virus-free infection medium containing carrageenan polymer, NaCl salt and sorbitol in the concentrations to be tested. The cells were incubated for 2 to 3 days at 33° C. […] An incubation of cells with the same dilution series of test substances (i.e. carragenan component plus osmolalitiy adjusting agents) in the absence of viral infection was performed to monitor for a potential toxicity of the treatment. Calculation of IC50 values was performed with standard fitting software ExcelFit."}, "[2]": {"system": "human rhinovirus 8 (HRV8)", "assay": "Inhibition of human rhinovirus 8 infection of Hela cells (cell viability, IC50)", "protocol": "as §1"}, "human coronavirus OC43": {"system": "human coronavirus OC43", "assay": "Hemagglutination inhibition assay, minimal inhibitory concentration for prevention of hCoV OC43 attachment to chicken RBCs", "assay_type": "cell-based", "experimental": "On a 96-well plate, two hemagglutination units of hCoV OC43/well were incubated with a ½-log dilution series of test or control samples for 10 min at room temperature. Final assay concentrations were 0.002 to 3 μg/ml iota-carrageenan in aqueous 0.5, 0.9, 2.0, 2.3 or 2.6% NaCl solution in the presence or absence of 7% sorbitol. Then, a suspension of chicken RBCs (1% v/v in PBS) was added to each well to allow hemagglutination of red blood cells (RBCs) by the virus for 1.5 hrs at 4° C. At the time point of assay evaluation, control RBCs in the absence of carrageenan were fully agglutinated, whereas hemagglutination was inhibited in the presence of carrageenan up to a sample-specific concentration, the minimal inhibitory concentration."}, "[3]": {"assay": "Osmolality of carrageenan preparations", "assay_type": "physicochemical"}, "[4]": {"details": "2% NaCl (670 mOsm/kg) compared to 0.5% NaCl (174 mOsm/kg)"}, "[5]": {"details": "2.3% NaCl (776 mOsm/kg) compared to 0.5% NaCl (174 mOsm/kg)"}, "[6]": {"details": "2.6% NaCl (872 mOsm/kg) compared to 0.5% NaCl (174 mOsm/kg)"}, "[7]": {"details": "0.9% NaCl (295 mOsm/kg) compared to 0.5% NaCl (174 mOsm/kg)"}},
  "data": [
    {"substance": "iota-carrageenan [iota carrageenan]", "values": [
      {"measurement": "Increase of IC50 value, HRV1a inhibition", "setting": "[1]; 0.9% NaCl (295 mOsm/kg) compared to hypoosmolar 0.5% NaCl solution (174 mOsm/kg)", "result": "3.1-fold* ^"},
      {"measurement": "Increase of IC50 value, HRV1a inhibition", "setting": "[1]; [4]", "result": "14.5-fold*"},
      {"measurement": "Increase of IC50 value, HRV1a inhibition", "setting": "[1]; [5]", "result": "22.3-fold*"},
      {"measurement": "Increase of IC50 value, HRV1a inhibition", "setting": "[1]; [6]", "result": "33.7-fold*"},
      {"measurement": "reduction in inhibitory efficacy on human rhinovirus replication", "setting": "[1]; isoosmolar (0.9%) and hyperosmolar (2%, 2.3%, 2.6% NaCl) compared with hypoosmolar solution (0.5% NaCl), summary of Table 1", "result": "≤ 34", "unit": "fold"},
      {"measurement": "Increase of IC50 value, HRV8 inhibition", "setting": "[2]; [7]", "result": "1.8-fold (ns)"},
      {"measurement": "Increase of IC50 value, HRV8 inhibition", "setting": "[2]; [4]", "result": "3.6-fold*"},
      {"measurement": "Increase of IC50 value, HRV8 inhibition", "setting": "[2]; [5]", "result": "6.9-fold*"},
      {"measurement": "Increase of IC50 value, HRV8 inhibition", "setting": "[2]; [6]", "result": "7.5-fold*"},
      {"measurement": "Increase of the minimal inhibitory concentration, hCV OC43", "setting": "human coronavirus OC43; 0.5% NaCl + 7% sorbitol (597 mOsm/kg) compared to 0.5% NaCl (174 mOsm/kg)", "result": "1-fold (ns)"},
      {"measurement": "Increase of the minimal inhibitory concentration, hCV OC43", "setting": "human coronavirus OC43; [7]", "result": "1-fold (ns)"},
      {"measurement": "Increase of the minimal inhibitory concentration, hCV OC43", "setting": "human coronavirus OC43; 0.9% NaCl + 7% sorbitol (733 mOsm/kg) compared to 0.5% NaCl (174 mOsm/kg)", "result": "1-fold (ns)"},
      {"measurement": "Increase of the minimal inhibitory concentration, hCV OC43", "setting": "human coronavirus OC43; [4]", "result": "10-fold*"},
      {"measurement": "Increase of the minimal inhibitory concentration, hCV OC43", "setting": "human coronavirus OC43; 2.3% NaCl (748 mOsm/kg) compared to 0.5% NaCl (174 mOsm/kg)", "result": "10-fold*"},
      {"measurement": "Increase of the minimal inhibitory concentration, hCV OC43", "setting": "human coronavirus OC43; 2.3 NaCl (776 mOsm/kg) compared to 0.5% NaCl (174 mOsm/kg)", "result": "10-fold*"},
      {"measurement": "Increase of the minimal inhibitory concentration, hCV OC43", "setting": "human coronavirus OC43; [6]", "result": "10-fold*"},
      {"measurement": "osmolality", "setting": "[3]; Table 1, solution with 0.9% NaCl", "result": 295, "unit": "mOsm/kg"},
      {"measurement": "osmolality", "setting": "[3]; Table 1, solution with 2% NaCl", "result": 670, "unit": "mOsm/kg"},
      {"measurement": "osmolality", "setting": "[3]; Table 1, solution with 2.3% NaCl", "result": 776, "unit": "mOsm/kg"},
      {"measurement": "osmolality", "setting": "[3]; Table 1, solution with 2.6% NaCl", "result": 872, "unit": "mOsm/kg"},
      {"measurement": "osmolality", "setting": "[3]; Table 4, solution with 0.9% NaCl", "result": 295, "unit": "mOsm/kg"},
      {"measurement": "osmolality", "setting": "[3]; Table 4, solution with 2% NaCl", "result": 670, "unit": "mOsm/kg"},
      {"measurement": "osmolality", "setting": "[3]; Table 4, solution with 2.3 NaCl", "result": 776, "unit": "mOsm/kg"},
      {"measurement": "osmolality", "setting": "[3]; Table 4, solution with 2.6% NaCl", "result": 872, "unit": "mOsm/kg"},
      {"measurement": "osmolality", "setting": "[3]; Table 5, solution with 0.5% NaCl + 7% sorbitol", "result": 597, "unit": "mOsm/kg"},
      {"measurement": "osmolality", "setting": "[3]; Table 5, solution with 0.9% NaCl + 7% sorbitol", "result": 733, "unit": "mOsm/kg"},
      {"measurement": "osmolality", "setting": "[3]; Table 5, solution with 2.3% NaCl", "result": 748, "unit": "mOsm/kg"}
    ]}
  ]
}
